17 molecules from PubChem BioAssay AID248 (DTP/NCI, 2004) can be followed below.

The experiment relates to L1210 leukemia ip in BDF1 mice, survival T/C. The experiment in a line: NCI In Vivo Anticancer Drug Screen. Data for tumor model L1210 Leukemia (intraperitoneal) in B6D2F1 (BDF1) mice. The note with it: endpoint: mean survival time, higher = longer survival. Put shortly: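 Ratio derived from survival: compound-dosed mice over vehicle-dosed mice, all bearing a transplantable tumor.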

The mark [1] stands for this setting: dose: 100.0 mg/kg/injection, schedule: Q04DX003 (ip), vehicle: Klucel (hydroxypropylcellulose) (HPC).
The mark [2] stands for this setting: dose: 100.0 mg/kg/injection, schedule: Q04DX003 (ip), vehicle: saline with Tween-80.
[3] abbreviates: dose: 200.0 mg/kg/injection, schedule: Q04DX003 (ip), vehicle: saline with Tween-80.
[4] abbreviates: dose: 400.0 mg/kg/injection, schedule: Q04DX003 (ip), vehicle: saline with Tween-80.
Where [5] appears, read: dose: 50.0 mg/kg/injection, schedule: Q01DX009 (ip), vehicle: saline.
Setting [6] is: dose: 100.0 mg/kg/injection, schedule: Q01DX001 (ip), vehicle: saline.
Setting [7] is: dose: 200.0 mg/kg/injection, schedule: Q01DX001 (ip), vehicle: saline.
The mark [8] stands for this setting: dose: 400.0 mg/kg/injection, schedule: Q01DX001 (ip), vehicle: saline.
[9] abbreviates: dose: 100.0 mg/kg/injection, schedule: Q01DX009 (ip), vehicle: saline with Tween-80.
[10] abbreviates: dose: 200.0 mg/kg/injection, schedule: Q01DX009 (ip), vehicle: saline with Tween-80.
Where [11] appears, read: dose: 400.0 mg/kg/injection, schedule: Q01DX009 (ip), vehicle: saline with Tween-80.
Setting [12] is: dose: 100.0 mg/kg/injection, schedule: Q01DX009 (ip), vehicle: water.
Where [13] appears, read: dose: 200.0 mg/kg/injection, schedule: Q01DX009 (ip), vehicle: water.

SMILES strings stand for the structures. Values joined by “and” are separate entries in the source; they are usually repeats but may differ in a detail not shown here. Equal entries are not always repeated. Inconclusive results and toxic doses are left out.

For the molecule `CNc1nc(Nc2ccc(C3=NCCN3)cc2)nc(Nc2ccc(C3=NCCN3)cc2)n1`, the T/C is, setting by setting: (dose: 1.25 mg/kg/injection, schedule: Q01DX015 (ip), vehicle: water) 96 % of control; (dose: 2.5 mg/kg/injection, schedule: Q01DX015 (ip), vehicle: water) 96 % of control; (dose: 5.0 mg/kg/injection, schedule: Q01DX015 (ip), vehicle: water) 105 % of control; (dose: 7.5 mg/kg/injection, schedule: Q01DX015 (ip), vehicle: water) 152 % of control; (dose: 10.0 mg/kg/injection, schedule: Q01DX015 (ip), vehicle: water) 102 % of control; (dose: 12.5 mg/kg/injection, schedule: Q01DX001 (ip), vehicle: water) 105 % of control. Besides, the T/C runs as follows: (dose: 13.3 mg/kg/injection, schedule: Q01DX Z (ip), vehicle: saline) 115 % of control; (dose: 15.0 mg/kg/injection, schedule: Q01DX015 (ip), vehicle: water) 106 % of control; (dose: 20.0 mg/kg/injection, schedule: Q01DX Z (ip), vehicle: saline) 121 % of control; (dose: 25.0 mg/kg/injection, schedule: Q01DX001 (ip), vehicle: water) 103 % of control; (dose: 30.0 mg/kg/injection, schedule: Q01DX015 (ip), vehicle: water) 121 % of control; (dose: 50.0 mg/kg/injection, schedule: Q01DX001 (ip), vehicle: water) 100 % of control. Also, the T/C is 105 % of control (dose: 60.0 mg/kg/injection, schedule: Q01DX Z (oral), vehicle: carboxymethylcellulose (CMC)); 115 % of control (dose: 75.0 mg/kg/injection, schedule: Q01DX001 (ip), vehicle: water); 109 % of control (dose: 120.0 mg/kg/injection, schedule: Q01DX Z (oral), vehicle: carboxymethylcellulose (CMC)); 96 % of control (dose: 240.0 mg/kg/injection, schedule: Q01DX Z (oral), vehicle: carboxymethylcellulose (CMC)); 100 % of control (dose: 480.0 mg/kg/injection, schedule: Q01DX Z (oral), vehicle: carboxymethylcellulose (CMC)).
As to `Nc1ncnc(N)c1NC(=O)C1CCCCC1`, the T/C was 101 % of control (dose: 25.0 mg/kg/injection, schedule: Q01DX001 (ip), vehicle: Klucel (hydroxypropylcellulose) (HPC)) and 101 % of control (dose: 50.0 mg/kg/injection, schedule: Q01DX001 (ip), vehicle: Klucel (hydroxypropylcellulose) (HPC)).
With `CCCCCCCCCCCCCCCC(=O)NOCc1cscn1`, the T/C is, setting by setting: (dose: 100.0 mg/kg/injection, schedule: Q01DX001 (ip), vehicle: other) 104 % of control; (dose: 100.0 mg/kg/injection, schedule: Q04DX003 (ip), vehicle: acetone) 93 % of control; (dose: 200.0 mg/kg/injection, schedule: Q01DX001 (ip), vehicle: other) 94 % of control; (dose: 200.0 mg/kg/injection, schedule: Q04DX003 (ip), vehicle: acetone) 93 % of control; (dose: 400.0 mg/kg/injection, schedule: Q01DX001 (ip), vehicle: other) 98 % of control; (dose: 400.0 mg/kg/injection, schedule: Q04DX003 (ip), vehicle: acetone) 98 % of control.
For the molecule `O=C(/C(=C/c1ccccc1)CN1CCOCC1)c1ccccc1`, the T/C under setting [1] was 96 % of control.
In the case of `CC1=NC(=NC(=O)c2ccccc2)N=C1`, the T/C was 97 % of control under setting [2], 96 % of control under setting [3] and 96 % of control under setting [4].
On to `CCOC(=O)c1cc2c(=O)c(C(=O)OCC)c[nH]c2o1`, for which the T/C was 104 % of control (dose: 100.0 mg/kg/injection, schedule: Q04DX002 (ip), vehicle: Klucel (hydroxypropylcellulose) (HPC)) and 104 % of control (dose: 400.0 mg/kg/injection, schedule: Q04DX002 (ip), vehicle: Klucel (hydroxypropylcellulose) (HPC)).
As for `Cc1ccc(S(=O)(=O)SC(Cl)(Cl)Cl)cc1`, under setting [5], the T/C is 105 % of control.
Regarding `C[S+](C)c1ccccc1C(C)(C)CC(=O)O`, the T/C is 103 % of control under setting [6], 98 % of control under setting [7] and 110 % of control under setting [8].
In the case of `CCCCC(CC)COC(=O)CC(CC(=O)OCC(CC)CCCC)C(=O)OCC(CC)CCCC` (stereo not drawn), the T/C by setting is: under setting [5], 111 % of control; (dose: 100.0 mg/kg/injection, schedule: Q01DX009 (ip), vehicle: saline) 97 % of control; (dose: 200.0 mg/kg/injection, schedule: Q01DX009 (ip), vehicle: saline) 92 % of control.
Regarding `O=C(O)c1ccc2c(c1)C(Br)(Br)C2(Br)Br`, the T/C runs as follows: under setting [9], 98 % of control; under setting [10], 101 % of control; under setting [11], 103 % of control.
For `O=C(OC(=Nc1ccc([N+](=O)[O-])cc1)c1cc(N2CCCC2)ccn1)c1ccc(-c2ccccc2)cc1`, the T/C by setting is: under setting [6], 98 % of control; under setting [7], 97 % of control; under setting [8], 92 % of control.
On to `Cc1cc(C)c(NC(=O)C(C)(C)C)c(C)c1`, for which the T/C by setting is: (dose: 100.0 mg/kg/injection, schedule: Q01DX009 (ip), vehicle: Klucel (hydroxypropylcellulose) (HPC)) 96 % of control and 100 % of control; (dose: 200.0 mg/kg/injection, schedule: Q01DX009 (ip), vehicle: Klucel (hydroxypropylcellulose) (HPC)) 102 % of control; (dose: 400.0 mg/kg/injection, schedule: Q01DX009 (ip), vehicle: Klucel (hydroxypropylcellulose) (HPC)) 96 % of control and 100 % of control.
In the case of `Cc1ccc(NC(=O)Oc2ccc(F)cc2Cl)cc1NC(=O)Oc1ccc(F)cc1Cl`, the T/C was 91 % of control under setting [9]; 95 % of control under setting [2]; 100 % of control under setting [10]; 88 % of control under setting [3]; 86 % of control under setting [11]; 95 % of control under setting [4].
For `NNC(=O)c1ccc(S(N)(=O)=O)cc1`, the T/C (dose: 12.5 mg/kg/injection, schedule: Q01DX009 (ip), vehicle: water) was 93 % of control; the T/C (dose: 25.0 mg/kg/injection, schedule: Q01DX009 (ip), vehicle: water) was 96 % of control; the T/C (dose: 50.0 mg/kg/injection, schedule: Q01DX009 (ip), vehicle: water) is 343 % of control; the T/C (dose: 59.0 mg/kg/injection, schedule: Q01DX009 (ip), vehicle: other) is 93 % of control and 103 % of control; the T/C (dose: 89.0 mg/kg/injection, schedule: Q01DX009 (ip), vehicle: other) is 97 % of control and 92 % of control; the T/C under setting [12] was 403 % of control. For the same molecule, the T/C (dose: 133.0 mg/kg/injection, schedule: Q01DX009 (ip), vehicle: other) was 101 % of control and 87 % of control; the T/C (dose: 200.0 mg/kg/injection, schedule: Q01DX009 (ip), vehicle: other) is 99 % of control and 90 % of control; the T/C under setting [13] is 459 % of control; the T/C (dose: 300.0 mg/kg/injection, schedule: Q01DX009 (ip), vehicle: other) was 94 % of control and 99 % of control.
Take `Nc1ccn(CC(=O)c2ccc(Cl)s2)c(=O)n1`: the T/C was 95 % of control under setting [12]; 101 % of control (dose: 100.0 mg/kg/injection, schedule: Q04DX003 (ip), vehicle: water); 101 % of control under setting [13]; 100 % of control (dose: 200.0 mg/kg/injection, schedule: Q04DX003 (ip), vehicle: water); 102 % of control (dose: 400.0 mg/kg/injection, schedule: Q04DX003 (ip), vehicle: water).
For `CC1(C)C2CCC([CH2][Hg][Cl])C1C2` (stereo not drawn), the T/C reads like this: (dose: 6.25 mg/kg/injection, schedule: Q01DX009 (ip), vehicle: saline) 93 % of control; (dose: 6.25 mg/kg/injection, schedule: Q04DX003 (ip), vehicle: other) 103 % of control; (dose: 12.5 mg/kg/injection, schedule: Q01DX009 (ip), vehicle: saline) 91 % of control; (dose: 12.5 mg/kg/injection, schedule: Q04DX003 (ip), vehicle: other) 103 % of control; (dose: 20.0 mg/kg/injection, schedule: Q01DX001 (ip), vehicle: Klucel (hydroxypropylcellulose) (HPC)) 102 % of control; (dose: 25.0 mg/kg/injection, schedule: Q01DX009 (ip), vehicle: saline) 94 % of control. Besides, the T/C (dose: 25.0 mg/kg/injection, schedule: Q04DX003 (ip), vehicle: other) is 106 % of control.
For `CON(C)S(=O)(=O)c1ccc(Cl)cc1`, the T/C reads like this: under setting [1], 100 % of control; (dose: 200.0 mg/kg/injection, schedule: Q04DX003 (ip), vehicle: Klucel (hydroxypropylcellulose) (HPC)) 103 % of control; (dose: 400.0 mg/kg/injection, schedule: Q04DX003 (ip), vehicle: Klucel (hydroxypropylcellulose) (HPC)) 105 % of control.
